The test system of series [1] is Hamigera avellanea IFO 7721. The series can be described thus: Antifungal activity, paper disc method (zone of growth inhibition). Format: cell-based. Particulars: for zone of inhibition at 100 µg/mL: Hamigera avellanea. The procedure: On the other hand, on agar plates [3.5 g disodium hydrogen phosphate, 0.5 g monopotassium phosphate, 5 g of yeast extract (Difco), 10 g glucose, 15 g agar, 1000 ml distilled water, pH 7.0], the antifungal activity of the test compound was assayed against Hamigera avellanea IFO 7721 by the paper disc method. Thus, on the plates inoculated with the above microorganism, the zones of growth inhibition were determined using paper discs immersed with 0.02 ml of a 100 μg/ml solution of demethylmaytansinoid compound (I).

Another series deals with Tetrahymena pyriformis W. The series is described as follows: Antiprotozoan activity, serial dilution method (MIC). Format: cell-based. The procedure: Then, with Tetrahymena pyriformis W as the test organism and a medium composed of 20 g tryptose-peptone (Difco Co.), 1 g yeast extract, 1 g glucose, 1000 ml distilled water, 10 ml 1 M phosphate buffer (pH 7.0) as the assay medium, the microorganism was incubated at 28° C. for 44 to 48 hours and the growth inhibitory activity of demethylmaytansinoid compound (I) was assayed by the serial dilution method.

Another series in a line: Solubility. Particulars: for Solubility in benzene, ether: ether (Table 4); for Solubility in chloroform, ethyl acetate, tetrahydrofuran, acetone, ethanol, methanol: organic solvents (Table 4); for Solubility in pyridine, dimethyl sulfoxide: dimethyl sulfoxide (Table 4); for Solubility in chloroform, ethyl acetate, acetone, ethanol, methanol, pyridine, tetrahydrofuran & dimethylsulfoxide: organic solvents (Table 3); for Solubility in petr. ether, n-hexane & water: n-hexane & water (Table 3).

[2] abbreviates: IFO7721, read-out: Antifungal activity, (φ mm), zone of growth inhibition, paper disc (8 mm diam.), 0.02 ml of a 100 μg/ml solution.
Where [3] appears, read: pH 7, read-out: Antiprotozoan activity, MIC.
[4] abbreviates: IFO7721, paper disc (8 mm diam.), 0.02 ml of a 100 μg/ml solution, read-out: Antifungal activity, (φ mm), zone of growth inhibition.

Molecules are shown by their SMILES. In brackets after ≈: the same amount, converted by molar mass. Like-named read-outs stand apart in the source and are kept apart here.

`CCCCCC(=O)OC1CC(=O)N(C)c2cc(cc(O)c2Cl)CC(C)=CC=CC(OC)C2(O)CC(OC(=O)N2)C(C)C2OC12C` (stereo not shown) [20-Demethoxy-20-hydroxymaytansinol 3-hexanoate]: in series [1] (setting [2]), the zone of inhibition at 100 µg/mL is 21 mm.
Regarding `COC1C=CC=C(C)Cc2cc(O)c(Cl)c(c2)N(C)C(=O)CC(OC(=O)CC(C)C)C2(C)OC2C(C)C2CC1(O)NC(=O)O2` (stereo not shown) [PDM-4, 20-demethoxy-20-hydroxymaytansinol 3-isovalerate], in series [1] (setting [2]), the zone of inhibition at 100 µg/mL came out at 24 mm. Moreover, the MIC in the series on Tetrahymena pyriformis W (setting [3]) came out at 1 mg/L (≈ 1.57 µM). Moreover, in the series “Solubility”, the “Solubility in benzene, ether” value is “Slightly soluble”; the “Solubility in chloroform, ethyl acetate, tetrahydrofuran, acetone, ethanol, methanol” value is “Soluble”; the “Solubility in pyridine, dimethyl sulfoxide” value (“Solubility in pyridine” below) is “Freely soluble”.
For the compound `CCC(=O)N(C)[C@@H](C)C(=O)OC1CC(=O)N(C)c2cc(cc(O)c2Cl)CC(C)=CC=CC(OC)C2(O)CC(OC(=O)N2)C(C)C2OC12C` (stereo partly shown) [20-Demethoxy-20-hydroxymaytanprine (L)], the zone of inhibition at 100 µg/mL in series [1] (setting [2]) was 23 mm.
`CCCC(=O)OC1CC(=O)N(C)c2cc(cc(O)c2Cl)CC(C)=CC=CC(OC)C2(O)CC(OC(=O)N2)C(C)C2OC12C` (stereo not shown) [PDM-3', 20-demethoxy-20-hydroxymaytansinol 3-butyrate]: the zone of inhibition at 100 µg/mL in series [1] (setting [2]) turned out to be 21 mm. Also, the MIC with Tetrahymena pyriformis W (setting [3]) amounted to 2 mg/L (≈ 3.22 µM).
Take `COC1C=CC=C(C)Cc2cc(O)c(Cl)c(c2)N(C)C(=O)CC(O)C2(C)OC2C(C)C2CC1(O)NC(=O)O2` (stereo not shown) [20-Demethoxy-20-hydroxymaytansinol]: the zone of inhibition at 100 µg/mL in series [1] (setting [2]) is less than 8 mm. Further, the MIC in the series with Tetrahymena pyriformis W (setting [3]) is 40 mg/L (≈ 72.6 µM). Also, in the series “Solubility”, the “Solubility in benzene, ether” value is reported as “Slightly soluble”; the “Solubility in chloroform, ethyl acetate, tetrahydrofuran, acetone, ethanol, methanol” value is reported as “Soluble”; the “Solubility in pyridine” value is given as “Freely soluble”.
With `COC1C=CC=C(C)Cc2cc(O)c(Cl)c(c2)N(C)C(=O)CC(OC(=O)C2CCCCC2)C2(C)OC2C(C)C2CC1(O)NC(=O)O2` (stereo not shown) [20-Demethoxy-20-hydroxymaytansinol 3-cyclohexanecarboxylate], in series [1] (setting [2]), the zone of inhibition at 100 µg/mL came to 20 mm.
Same read-out and setting: the result for `COC1C=CC=C(C)Cc2cc(O)cc(c2)N(C)C(=O)CC(OC(=O)C(C)C)C2(C)OC2C(C)C2CC1(O)NC(=O)O2` (stereo not shown) [20-Demethoxy-20-hydroxydechloromaytansinol 3-isobutyrate] reads 16 mm.
Take `COC1C=CC=C(C)Cc2cc(O)c(Cl)c(c2)N(C)C(=O)CC(OC(=O)Cc2ccccc2)C2(C)OC2C(C)C2CC1(O)NC(=O)O2` (stereo not shown) [20-Demethoxy-20-hydroxymaytansinol 3-phenylacetate]: in series [1] (setting [4]), the zone of inhibition at 100 µg/mL came to 23 mm. The “Antifungal activity, (φ mm), zone of growth inhibition” value in series [1] (paper disc (8 mm diam.), 0.02 ml of a 100 μg/ml solution) is on record as 15 mm.
Turning to `COC1C=CC=C(C)Cc2cc(O)c(Cl)c(c2)N(C)C(=O)CC(OC(=O)c2ccc(Cl)cc2)C2(C)OC2C(C)C2CC1(O)NC(=O)O2` (stereo not shown) [20-Demethoxy-20-hydroxymaytansinol 3-p-chlorobenzoate], the zone of inhibition at 100 µg/mL in series [1] (setting [2]) came out at 10 mm. For the same compound, in the series on Tetrahymena pyriformis W (setting [3]), the MIC was determined as 4 mg/L (≈ 5.8 µM).
Take `COC1C=CC=C(C)Cc2cc(O)c(Cl)c(c2)N(C)C(=O)CC(OC(=O)[C@H](C)N(C)C(C)=O)C2(C)OC2C(C)C2CC1(O)NC(=O)O2` (stereo partly shown) [20-Demethoxy-20-hydroxymaytansine (L)]: in the series with Tetrahymena pyriformis W (setting [3]), the MIC is more than 16 mg/L.
For the compound `COC1C=CC=C(C)Cc2cc(O)c(Cl)c(c2)N(C)C(=O)CC(OC(=O)c2ccccn2)C2(C)OC2C(C)C2CC1(O)NC(=O)O2` (stereo not shown) [20-Demethoxy-20-hydroxymaytansinol 3-picolinate], the zone of inhibition at 100 µg/mL in series [1] (setting [2]) is 10 mm. The MIC in the series with Tetrahymena pyriformis W (setting [3]) was not below 4 mg/L.
Regarding `COC1C=CC=C(C)Cc2cc(O)c(Cl)c(c2)N(C)C(=O)CC(OC(=O)C(C)C)C2(C)OC2C(C)C2CC1(O)NC(=O)O2` (stereo not shown) [PDM-3], in series [1] (setting [4]), the zone of inhibition at 100 µg/mL was 21 mm. Further, the MIC in the series on Tetrahymena pyriformis W (serial dilution, 28° C., 44 to 48 hours, pH 7.0, read-out: Antiprotozoan activity, MIC) turned out to be 2 mg/L (≈ 3.22 µM).
For `COC1C=CC=C(C)Cc2cc(O)c(Cl)c(c2)N(C)C(=O)CC(OC(=O)[C@H](C)N(C)C(=O)CC(C)C)C2(C)OC2C(C)C2CC1(O)NC(=O)O2` (stereo partly shown) [20-Demethoxy-20-hydroxymaytanvaline (L)], the zone of inhibition at 100 µg/mL in series [1] (setting [2]) came out at 24 mm. Further, the MIC with Tetrahymena pyriformis W (setting [3]) stood at 2 mg/L (≈ 2.78 µM).
As for `COC1C=CC=C(C)Cc2cc(O)c(Cl)c(c2)N(C)C(=O)CC(OC(=O)Nc2ccccc2)C2(C)OC2C(C)C2CC1(O)NC(=O)O2` (stereo not shown) [20-Demethoxy-20-hydroxymaytansinol 3-N-phenylcarbamate], the zone of inhibition at 100 µg/mL in series [1] (setting [2]) is less than 8 mm. In addition, the MIC with Tetrahymena pyriformis W (setting [3]) was not below 8 mg/L.
`COc1cc2cc(c1Cl)N(C)C(=O)CC(OC(=O)CC(C)C)C1(C)OC1C(C)C1CC(O)(NC(=O)O1)C(OC)C=CC=C(C)C2` (stereo not shown) [Ansamitocin P-4, reference compound]: in the series “Solubility”, the “Solubility in chloroform, ethyl acetate, acetone, ethanol, methanol, pyridine, tetrahydrofuran & dimethylsulfoxide” value was “Soluble” and the “Solubility in petr. ether, n-hexane & water” value is listed as “Insoluble”.
On to `CCC(=O)OC1CC(=O)N(C)c2cc(cc(O)c2Cl)CC(C)=CC=CC(OC)C2(O)CC(OC(=O)N2)C(C)C2OC12C` (stereo not shown) [20-Demethoxy-20-hydroxymaytansinol propionate], for which the zone of inhibition at 100 µg/mL in series [1] (setting [2]) amounted to 15 mm. Moreover, in the series “Solubility”, the “Solubility in benzene, ether” value is “Slightly soluble”; the “Solubility in chloroform, ethyl acetate, tetrahydrofuran, acetone, ethanol, methanol” value is listed as “Soluble”; the “Solubility in pyridine” value is “Freely soluble”.
Regarding `COC1C=CC=C(C)Cc2cc(O)c(Cl)c(c2)N(C)C(=O)CC(OC(=O)[C@H](C)N(C)C(=O)C(C)C)C2(C)OC2C(C)C2CC1(O)NC(=O)O2` (stereo partly shown) [20-Demethoxy-20-hydroxymaytanbutine (L)], in series [1] (setting [2]), the zone of inhibition at 100 µg/mL came out at 24 mm.
With `COc1cc2cc(c1Cl)N(C)C(=O)CC(OC(=O)C(C)C)C1(C)OC1C(C)C1CC(O)(NC(=O)O1)C(OC)C=CC=C(C)C2` (stereo not shown) [Ansamitocin P-3, reference compound], in the series “Solubility”, the “Solubility in chloroform, ethyl acetate, acetone, ethanol, methanol, pyridine, tetrahydrofuran & dimethylsulfoxide” value was “Soluble” and the “Solubility in petr. ether, n-hexane & water” value is on record as “Insoluble”.
On to `COC1C=CC=C(C)Cc2cc(O)c(Cl)c(c2)N(C)C(=O)CC(OC(C)=O)C2(C)OC2C(C)C2CC1(O)NC(=O)O2` (stereo not shown) [20-Demethoxy-20-hydroxymaytanacine], for which the zone of inhibition at 100 µg/mL in series [1] (setting [2]) came to 10 mm. Also, the MIC with Tetrahymena pyriformis W (setting [3]) came out at 10 mg/L (≈ 16.9 µM). In “Solubility”, the “Solubility in benzene, ether” value is recorded as “Slightly soluble”; the “Solubility in chloroform, ethyl acetate, tetrahydrofuran, acetone, ethanol, methanol” value is “Soluble”; the “Solubility in pyridine” value is listed as “Freely soluble”.

(Values after US4307016A, “Demethyl maytansinoids” (priority 1978, dated 1981).)
